The text below walks through data of patent US20080045537A1, “Chemical Compounds” (priority 2004, published 2008).

Molecules are shown by their SMILES.

One test deals with HIV-1 IIIB (T-tropic, CXCR4 utilizing). In words: HOS HIV-1 infectivity assay. The settings on record: Human immunodeficiency virus 1, IIIB, read-out: Activity Level. It is filed as cell-based. As for the experimental part: Compounds were profiled against two HIV-1 viruses, the M-tropic (CCR5 utilizing) Ba-L strain and the T-tropic (CXCR4 utilizing) IIIB strain. Both viruses were propagated in human peripheral blood lymphocytes. Compounds were tested for there ability to block infection of the HOS cell line (expressing hCXCR4/hCCR5/hCD4/pHIV-LTR-luciferase) by either HIV-1 Ba-L or HIV-1 IIIB. Compound cytotoxicity was also examined in the absence of virus addition.
HOS cells (expressing hCXCR4/hCCR5/hCD4/pHIV-LTR-luciferase) were harvested and diluted in Dulbeccos modified Eagles media supplemented with 2% FCS and non-essential amino acid to a concentration of 60,000 cells/ml. The cells were plated into 96-well plates (100 ul per well) and the plates were placed in a tissue culture incubator (37° C.; 5% CO2/95% air) for a period of 24 h.
Subsequently, 50 ul of the desired drug solution (4 times the final concentration) was added to each well and the plates were returned to the tissue culture incubator (37° C.; 5% CO2/95% air) for 1 h. Following this incubation 50 ul of diluted virus was added to each well (approximately 2 million RLU per well of virus). The plates were returned to the tissue culture incubator (37° C.; 5% CO2/95% air) and were incubated for a further 96 h.
Following this incubation the endpoint for the virally infected cultures was quantified following addition of Steady-Glo Luciferase assay system reagent (Promega, Madison, Wis.). Cell viability or non-infected cultures was measured using a CellTiter-Glo luminescent cell viability assay system (Promega, Madison, Wis.). All luminescent readouts are performed on a Topcount luminescence detector (Packard, Meridien, Conn.).
On to `CN(Cc1nc2c(C(=O)N3C[C@@H]4C[C@H]3CN4)cccc2[nH]1)C1CCCc2cccnc21` (stereo partly drawn) [Example 92, N-({4-[(1S,4S)-2,5-diazabicyclo[2.2.1]hept-2-ylcarbonyl]-1H-benzimidazol-2-yl}methyl)-N-methyl-5,6,7,8-tetrahydro-8-quinolinamine], for which the IC50 is < 100 nM.

The test is the same for the next values; noted with them: Human immunodeficiency virus 1, IIIB; as determined by the infectivity assay; strain not stated in Table 2; read-out: Activity Level.
For `CC(C)N1CCN(c2cccc3[nH]c(CN(C(C)C)C4CCCc5cccnc54)nc23)CC1` (centres unmarked) [Example 113, N-(1-methylethyl)-N-({4-[4-(1-methylethyl)-piperazinyl]-1H-benzimidazol-2-yl}methyl)-5,6,7,8-tetrahydro-8-quinolinamine], the IC50 is < 100 nM.

Regarding `CCCN(Cc1nc2cccc(N3CCN(C)CC3)c2[nH]1)[C@H]1CCCc2cccnc21` [Example 137, (8S)—N-{[4-(4-methyl-1-piperazinyl)-1H-benzimidazol-2-yl]methyl}-N-propyl-5,6,7,8-tetrahydro-8-quinolinamine], the IC50 was < 100 nM.

Consider `CN(Cc1nc2c(C(=O)NCCc3ccccn3)cccc2[nH]1)C1CCCc2cccnc21` (centres unmarked) [Example 76, 2-{[Methyl(5,6,7,8-tetrahydro-8-quinolinyl)amino]methyl}-N-[2-(2-pyridinyl)ethyl]-1H-benzimidazole-4-carboxamide], for which the IC50 was in the range of 100 to 500 nM.

On to `CN1CCN(c2cccc3nc(C(C)(C)NC4CCCc5cccnc54)[nH]c23)CC1` (centres unmarked) [Example 114, N-{1-methyl-1-[4-(4-methyl-1-piperazinyl)-1H-benzimidazol-2-yl]ethyl}-5,6,7,8-tetrahydro-8-quinolinamine], for which the IC50 is < 100 nM.

For `CN1CCN(c2cccc3nc(CNC4CCc5cccnc54)[nH]c23)CC1` (centres unmarked) [Example 182, N-{[4-(4-Methyl-1-piperazinyl)-1H-benzimidazol-2-yl]methyl}-6,7-dihydro-5H-cyclopenta[b]pyridin-7-amine], the IC50 lay in the range of 100 to 500 nM.

Consider `CCN(Cc1nc2cc(C(=O)N(C)CCN(C)C)ccc2[nH]1)C1CCCc2cccnc21` (centres unmarked) [Example 49, N-[2-(Dimethylamino)ethyl]-2-{[ethyl(5,6,7,8-tetrahydro-8-quinolinyl)amino]methyl}-N-methyl-1H-benzimidazole-5-carboxamide], for which the IC50 fell in the range of 500 to 10000 nM.

As to `CN1CCN(c2cccc3nc(CN(C)[C@@H]4CCCc5cccnc54)[nH]c23)CC1` [Example 133A, (8R)—N-Methyl-N-{[4-(4-methyl-1-piperazinyl)-1H-benzimidazol-2-yl]methyl}-5,6,7,8-tetrahydro-8-quinolinamine], the IC50 was < 100 nM.

As to `CN(Cc1nc2c(C(=O)N3CCC(N)CC3)cccc2[nH]1)C1CCCc2cccnc21` (centres unmarked) [Example 82, N-({4-[(4-Amino-1-piperidinyl)carbonyl]-1H-benzimidazol-2-yl}methyl)-N-methyl-5,6,7,8-tetrahydro-8-quinolinamine], the IC50 was < 100 nM.

Consider `CN1CCN(c2cccc3nc(CN(C)[C@H]4CCCc5cccnc54)[nH]c23)CC1` [Example 133B, (8S)—N-Methyl-N-{[4-(4-methyl-1-piperazinyl)-1H-benzimidazol-2-yl]methyl}-5,6,7,8-tetrahydro-8-quinolinamine], for which the IC50 was < 100 nM.

Consider `CCCN(Cc1nc2cccc(N3CCN(C)CC3)c2n1C)[C@H]1CCCc2cccnc21` [Example 168, (8S)—N-{[1-Methyl-7-(4-methyl-1-piperazinyl)-1H-benzimidazol-2-yl]methyl}-N-propyl-5,6,7,8-tetrahydro-8-quinolinamine], for which the IC50 was < 100 nM.

As for `CN(Cc1nc2cc(C(=O)NCc3cccnc3)ccc2[nH]1)C1CCCc2cccnc21` (centres unmarked) [Example 39, 2-{[Methyl(5,6,7,8-tetrahydro-8-quinolinyl)amino]methyl}-N-(3-pyridinylmethyl)-1H-benzimidazole-5-carboxamide], the IC50 fell in the range of 500 to 10000 nM.

Turning to `CN1CCN(CCCNC(=O)c2cccc3[nH]c(CN(C)C4CCCc5cccnc54)nc23)CC1` (centres unmarked) [Example 73, N-[3-(4-Methyl-1-piperazinyl)propyl]-2-{[methyl(5,6,7,8-tetrahydro-8-quinolinyl)amino]methyl}-1H-benzimidazole-4-carboxamide], the IC50 is 100 to 500 nM.

Turning to `CN(Cc1nc2c(C(=O)NCCCn3ccnc3)cccc2[nH]1)C1CCCc2cccnc21` (centres unmarked) [Example 79, N-[3-(1H-Imidazol-1-yl)propyl]-2-{[methyl(5,6,7,8-tetrahydro-8-quinolinyl)amino]methyl}-1H-benzimidazole-4-carboxamide], the IC50 was < 100 nM.

With `COc1ccc([C@H](C)N(Cc2nc3cccc(N4CCN(C)CC4)c3[nH]2)[C@H]2CCCc3cccnc32)cc1` [Example 146, (8S)—N-{(1S)-1-[4-(methyloxy)phenyl]ethyl}-N-{[4-(4-methyl-1-piperazinyl)-1H-benzimidazol-2-yl]methyl}-5,6,7,8-tetrahydro-8-quinolinamine], the IC50 was < 100 nM.

`CN(Cc1nc2cc(C(=O)N3CCNCC3)ccc2[nH]1)C1CCCc2cccnc21` (centres unmarked) [Example 57, N-Methyl-N-{[5-(1-piperazinylcarbonyl)-1H-benzimidazol-2-yl]methyl}-5,6,7,8-tetrahydro-8-quinolinamine]: the IC50 lay in the range of 500 to 10000 nM.

With `CN(Cc1nc2c(C(=O)N3CCC(N)C3)cccc2[nH]1)C1CCCc2cccnc21` (centres unmarked) [Example 83, N-({4-[(3-amino-1-pyrrolidinyl)carbonyl]-1H-benzimidazol-2-yl}methyl)-N-methyl-5,6,7,8-tetrahydro-8-quinolinamine], the IC50 is < 100 nM.

As for `CN1CCN(c2cccc3nc(CN(C4CC4)C4CCCc5cccnc54)[nH]c23)CC1` (centres unmarked) [Example 145, N-Cyclopropyl-N-{[4-(4-methyl-1-piperazinyl)-1H-benzimidazol-2-yl]methyl}-5,6,7,8-tetrahydro-8-quinolinamine], the IC50 was < 100 nM.

Take `CN(Cc1nc2c(C(=O)NC3CCNC3)cccc2[nH]1)C1CCCc2cccnc21` (centres unmarked) [Example 78, 2-{[Methyl(5,6,7,8-tetrahydro-8-quinolinyl)amino]methyl}-N-3-pyrrolidinyl-1H-benzimidazole-4-carboxamide]: the IC50 was < 100 nM.

`CN1CCN(c2cccc3nc(CN(C)[C@H]4CCCc5cccnc54)n(C)c23)CC1` [Example 160, (8S)—N-Methyl-N-{[1-methyl-7-(4-methyl-1-piperazinyl)-1H-benzimidazol-2-yl]methyl}-5,6,7,8-tetrahydro-8-quinolinamine]: the IC50 was < 100 nM.

Turning to `CCN(Cc1nc2cccc(N3CCN(C)CC3)c2n1C)[C@H]1CCCc2cccnc21` [Example 167, (8S)—N-Ethyl-N-{[1-methyl-7-(4-methyl-1-piperazinyl)-1H-benzimidazol-2-yl]methyl}-5,6,7,8-tetrahydro-8-quinolinamine], the IC50 is < 100 nM.

For the molecule `CC(C)N(Cc1nc2cccc(N3CCN(C)CC3)c2[nH]1)[C@H]1CCCc2cccnc21` [Example 138, (8S)—N-(1-Methylethyl)-N-{[4-(4-methyl-1-piperazinyl)-1H-benzimidazol-2-yl]methyl}-5,6,7,8-tetrahydro-8-quinolinamine], the IC50 was < 100 nM.

In the case of `CN(Cc1nc2c(C(=O)N3CCCNCC3)cccc2[nH]1)C1CCCc2cccnc21` (centres unmarked) [Example 93, N-{[4-(hexahydro-1H-1,4-diazepin-1-ylcarbonyl)-1H-benzimidazol-2-yl]methyl}-N-methyl-5,6,7,8-tetrahydro-8-quinolinamine], the IC50 was < 100 nM.

`CN1CCN(C(=O)c2ccc3[nH]c(CN(C)C4CCCc5cccnc54)nc3c2)CC1` (centres unmarked) [Example 58, N-Methyl-N-({5-[(4-methyl-1-piperazinyl)carbonyl]-1H-benzimidazol-2-yl}methyl)-5,6,7,8-tetrahydro-8-quinolinamine]: the IC50 lay within 100 to 500 nM.

In the case of `CN1CCN(c2cccc3nc(CN(Cc4ccccc4)[C@H]4CCCc5cccnc54)[nH]c23)CC1` [Example 150, (8S)—N-{[4-(4-methyl-1-piperazinyl)-1H-benzimidazol-2-yl]methyl}-N-(phenylmethyl)-5,6,7,8-tetrahydro-8-quinolinamine], the IC50 is < 100 nM.

Take `CN(C)CCCNc1cccc2[nH]c(CN(C)C3CCCc4cccnc43)nc12` (centres unmarked) [Example 106, [3-(Dimethylamino)propyl](2-{[methyl(5,6,7,8-tetrahydro-8-quinolinyl)amino]methyl}-1H-benzimidazol-4-yl)amine]: the IC50 fell in the range of 100 to 500 nM.

For `CN1CCN(c2cccc3nc(CN(CC4CC4)C4CCCc5cccnc54)n(C)c23)CC1` (centres unmarked) [Example 156, N-(Cyclopropylmethyl)-N-{[1-methyl-7-(4-methyl-1-piperazinyl)-1H-benzimidazol-2-yl]methyl}-5,6,7,8-tetrahydro-8-quinolinamine], the IC50 was < 100 nM.

As for `CN(Cc1nc2cc(C(=O)NCc3ccncc3)ccc2[nH]1)C1CCCc2cccnc21` (centres unmarked) [Example 40, 2-{[Methyl(5,6,7,8-tetrahydro-8-quinolinyl)amino]methyl}-N-(4-pyridinylmethyl)-1H-benzimidazole-5-carboxamide], the IC50 was in the range of 500 to 10000 nM.

For `CN1CCN(c2cccc3c2nc(CN(C)C2CCCc4cccnc42)n3C)CC1` (centres unmarked) [Example 152, N-Methyl-N-{[1-methyl-4-(4-methyl-1-piperazinyl)-1H-benzimidazol-2-yl]methyl}-5,6,7,8-tetrahydro-8-quinolinamine], the IC50 lay in the range of 100 to 500 nM.
